Measurements taken from patent US12384808B2, “Modulators of TNF-α activity” (Forward Therapeutics, Inc., priority 2022, dated 2025).
Read-outs that look alike come from different tables or passages of the source.

Target: TNFα (Homo sapiens, UniProt P01375)
Experiment: TNFα Induced HEK Blue Cellular Assay
Assay type: cell-based
Outline: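 IC50 fitted with a 4-parameter logistic model from % inhibition, normalised to DMSO controls with and without stimulation. Readout: QUANTI-Blue SEAP at 620 nm after 24 h, 37 °C exposure to TNFα (100 pg/ml final) and test compound at […]–0.5 nM final.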

[1] = HEK Blue TNFα reporter cells, TNFα 100 pg/ml, 24 hrs at 37° C., secreted alkaline phosphatase (QUANTI-Blue) read at 620 nm, read-out: IC50 value

TNFα, sequence (P01375 77-233 limits assumed): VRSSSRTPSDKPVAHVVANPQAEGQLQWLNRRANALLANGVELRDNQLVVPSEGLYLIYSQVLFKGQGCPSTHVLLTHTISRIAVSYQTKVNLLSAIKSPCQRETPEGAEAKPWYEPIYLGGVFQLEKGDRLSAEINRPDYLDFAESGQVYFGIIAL

With `[2H]C([2H])([2H])N1C(=O)c2cccc(OC(F)F)c2[C@H]2C[C@@H]1c1nc3ccc(-c4ccc(P(C)(C)=O)c(Cl)n4)cc3n12` [Example 121, (7R,14R)-11-(6-chloro-5-(dimethylphosphoryl)pyridin-2-yl)-1-(difluoromethoxy)-6-(methyl-d3)-6,7-dihydro-7,14-methanobenzo[f]benzo[4,5]imidazo[1,2-a][1,4]diazocin-5(14H)-one] the IC50 [1] was 100 to 1000 nM.
`[2H]C([2H])([2H])N1C(=O)c2cccc(OC(F)F)c2[C@H]2C[C@@H]1c1nc3ccc(-c4ccc(P(C)(C)=O)c(C(F)(F)F)c4)cc3n12` [Example 122, (7R,14R)-1-(difluoromethoxy)-11-(4-(dimethylphosphoryl)-3-(trifluoromethyl)phenyl)-6-(methyl-d3)-6,7-dihydro-7,14-methanobenzo[f]benzo[4,5]imidazo[1,2-a][1,4]diazocin-5(14H)-one] showed an IC50 [1] of 100 to 1000 nM.
`[2H]C([2H])([2H])N1C(=O)c2cccc(OC(F)F)c2[C@H]2C[C@@H]1c1nc3ccc(-c4cc(F)c(P(C)(C)=O)c(C)n4)cc3n12` [Example 123, (7R,14R)-1-(difluoromethoxy)-11-(5-(dimethylphosphoryl)-4-fluoro-6-methylpyridin-2-yl)-6-(methyl-d3)-6,7-dihydro-7,14-methanobenzo[f]benzo[4,5]imidazo[1,2-a][1,4]diazocin-5(14H)-one] gave an IC50 [1] of 100 to 1000 nM.
Compound `[2H]C([2H])([2H])N1C(=O)c2cccc(OC(F)F)c2[C@H]2C[C@@H]1c1nc3ccc(-c4cnc(P(C)(C)=O)c(F)c4)cc3n12` [Example 124, (7R,14R)-1-(difluoromethoxy)-11-(6-(dimethylphosphoryl)-5-fluoropyridin-3-yl)-6-(methyl-d3)-6,7-dihydro-7,14-methanobenzo[f]benzo[4,5]imidazo[1,2-a][1,4]diazocin-5(14H)-one] has an IC50 [1] of under 100 nM.
For `[2H]C([2H])([2H])N1C(=O)c2cccc(OC(F)F)c2[C@H]2C[C@@H]1c1nc3ccc(-c4ccc(P(=O)(CC)CC)c(F)c4)cc3n12` [Example 125, (7R,14R)-11-(4-(diethylphosphoryl)-3-fluorophenyl)-1-(difluoromethoxy)-6-(methyl-d3)-6,7-dihydro-7,14-methanobenzo[f]benzo[4,5]imidazo[1,2-a][1,4]diazocin-5(14H)-one], the IC50 [1] was under 100 nM.
In the case of `[2H]C([2H])([2H])N1C(=O)c2cccc(OC(F)F)c2[C@H]2C[C@@H]1c1nc3ccc(-c4ccc(P(=O)(CC)CC)nc4)cc3n12` [Example 126, (7R,14R)-11-(6-(diethylphosphoryl)pyridin-3-yl)-1-(difluoromethoxy)-6-(methyl-d3)-6,7-dihydro-7,14-methanobenzo[f]benzo[4,5]imidazo[1,2-a][1,4]diazocin-5(14H)-one], the IC50 [1] is reported as under 100 nM.
For `[2H]C([2H])([2H])N1C(=O)c2cccc(OC(F)F)c2[C@H]2C[C@@H]1c1nc3ccc(-c4cnc(P(=O)(CC)CC)c(F)c4)cc3n12` [Example 127, (7R,14R)-11-(6-(diethylphosphoryl)-5-fluoropyridin-3-yl)-1-(difluoromethoxy)-6-(methyl-d3)-6,7-dihydro-7,14-methanobenzo[f]benzo[4,5]imidazo[1,2-a][1,4]diazocin-5(14H)-one], the IC50 [1] was under 100 nM.
`[2H]C([2H])([2H])N1C(=O)c2cccc(OC(F)(F)F)c2[C@H]2C[C@@H]1c1nc3ccc(-c4ccc(P(C)(C)=O)c(F)c4)cc3n12` [Example 128, (7R,14R)-11-(4-(dimethylphosphoryl)-3-fluorophenyl)-6-(methyl-d3)-1-(trifluoromethoxy)-6,7-dihydro-7,14-methanobenzo[f]benzo[4,5]imidazo[1,2-a][1,4]diazocin-5(14H)-one] showed an IC50 [1] of under 100 nM.
In the case of `[2H]C([2H])([2H])N1C(=O)c2cccc(OC(F)F)c2[C@H]2C[C@@H]1c1nc3ccc(-c4cc(F)c(P(C)(C)=O)c(OC)c4)cc3n12` [Example 129, (7R,14R)-1-(difluoromethoxy)-11-(4-(dimethylphosphoryl)-3-fluoro-5-methoxyphenyl)-6-(methyl-d3)-6,7-dihydro-7,14-methanobenzo[f]benzo[4,5]imidazo[1,2-a][1,4]diazocin-5(14H)-one], the IC50 [1] is reported as under 100 nM.
`[2H]C([2H])([2H])N1C(=O)c2cccc(OC(F)F)c2[C@H]2C[C@@H]1c1nc3ccc(-c4cc(F)c(P(C)(C)=O)cc4OC)cc3n12` [Example 130, (7R,14R)-1-(difluoromethoxy)-11-(4-(dimethylphosphoryl)-5-fluoro-2-methoxyphenyl)-6-(methyl-d3)-6,7-dihydro-7,14-methanobenzo[f]benzo[4,5]imidazo[1,2-a][1,4]diazocin-5(14H)-one] gave an IC50 [1] of under 100 nM.
In the case of `[2H]C([2H])([2H])N1C(=O)c2cccc(OC(F)F)c2[C@H]2C[C@@H]1c1nc3ccc(-c4cc(N)c(P(C)(C)=O)c(F)c4)cc3n12` [Example 131, (7R,14R)-11-(3-amino-4-(dimethylphosphoryl)-5-fluorophenyl)-1-(difluoromethoxy)-6-(methyl-d3)-6,7-dihydro-7,14-methanobenzo[f]benzo[4,5]imidazo[1,2-a][1,4]diazocin-5(14H)-one], the IC50 [1] is reported as 10000 to 30000 nM.
For `[2H]C([2H])([2H])N1C(=O)c2cccc(OC(F)F)c2[C@H]2C[C@@H]1c1nc3ccc(-c4cc(C)c(P(C)(C)=O)c(F)n4)cc3n12` [Example 132, (7R,14R)-1-(difluoromethoxy)-11-(5-(dimethylphosphoryl)-6-fluoro-4-methylpyridin-2-yl)-6-(methyl-d3)-6,7-dihydro-7,14-methanobenzo[f]benzo[4,5]imidazo[1,2-a][1,4]diazocin-5(14H)-one], the IC50 [1] was under 100 nM.
For `[2H]C([2H])([2H])N1C(=O)c2cccc(OC(F)F)c2[C@H]2C[C@@H]1c1nc3ccc(-c4cc(F)c(P(C)(C)=O)c(C#N)c4)cc3n12` [Example 133, 5-((7R,14R)-1-(difluoromethoxy)-6-(methyl-d3)-5-oxo-5,6,7,14-tetrahydro-7,14-methanobenzo[f]benzo[4,5]imidazo[1,2-a][1,4]diazocin-11-yl)-2-(dimethylphosphoryl)-3-fluorobenzonitrile], the IC50 [1] was under 100 nM.
`[2H]C([2H])([2H])N1C(=O)c2cccc(OC(F)F)c2[C@H]2C[C@@H]1c1nc3ccc(-c4cnc(P(C)(C)=O)c(C)c4)cc3n12` [Example 134, (7R,14R)-1-(difluoromethoxy)-11-(6-(dimethylphosphoryl)-5-methylpyridin-3-yl)-6-(methyl-d3)-6,7-dihydro-7,14-methanobenzo[f]benzo[4,5]imidazo[1,2-a][1,4]diazocin-5(14H)-one] was tested, and the IC50 [1] was under 100 nM.
Work on `[2H]C([2H])([2H])N1C(=O)c2cccc(OC(F)F)c2[C@H]2C[C@@H]1c1nc3c(F)cc(-c4ccc(P(C)(C)=O)c(F)c4)cc3n12` [Example 135, (7R,14R)-1-(difluoromethoxy)-11-(4-(dimethylphosphoryl)-3-fluorophenyl)-9-fluoro-6-(methyl-d3)-6,7-dihydro-7,14-methanobenzo[f]benzo[4,5]imidazo[1,2-a][1,4]diazocin-5(14H)-one] yielded an IC50 [1] of under 100 nM.
With `[2H]C([2H])([2H])N1C(=O)c2cccc(OC(F)F)c2[C@H]2C[C@@H]1c1nc3ccc(-c4ccc(CP(=O)(OC)OC)c(F)c4)cc3n12` [Example 136, dimethyl (4-((7R,14R)-1-(difluoromethoxy)-6-(methyl-d3)-5-oxo-5,6,7,14-tetrahydro-7,14-methanobenzo[f]benzo[4,5]imidazo[1,2-a][1,4]diazocin-11-yl)-2-fluorobenzyl)phosphonate] the IC50 was under 100 nM.
For `CCP(=O)(CC)c1ccc(-c2ccc3nc4n(c3c2)[C@@H]2C[C@H]4NC(=O)c3cccc(OC(F)F)c32)cn1` [Example 137, (7R,14R)-11-(6-(diethylphosphoryl)pyridin-3-yl)-1-(difluoromethoxy)-6,7-dihydro-7,14-methanobenzo[f]benzo[4,5]imidazo[1,2-a][1,4]diazocin-5(14H)-one], the IC50 [1] was under 100 nM.
In the case of `CCP(=O)(CC)c1ccc(-c2ccc3nc4n(c3c2)[C@@H]2C[C@H]4NC(=O)c3cccc(OC(F)F)c32)c(F)c1` [Example 138, (7R,14R)-11-(4-(diethylphosphoryl)-2-fluorophenyl)-1-(difluoromethoxy)-6,7-dihydro-7,14-methanobenzo[f]benzo[4,5]imidazo[1,2-a][1,4]diazocin-5(14H)-one], the IC50 [1] is reported as under 100 nM.
`[2H]C([2H])([2H])N1C(=O)c2cccc(OC(F)F)c2[C@H]2C[C@@H]1c1nc3ccc(-c4ccc(P(C)(C)=O)c(F)c4)c(F)c3n12` [Example 139, (7R,14R)-1-(difluoromethoxy)-11-(4-(dimethylphosphoryl)-3-fluorophenyl)-12-fluoro-6-(methyl-d3)-6,7-dihydro-7,14-methanobenzo[f]benzo[4,5]imidazo[1,2-a][1,4]diazocin-5(14H)-one] showed an IC50 [1] of under 100 nM.
Work on `CP(C)(=O)c1ccc(-c2ccc3nc4n(c3c2F)[C@@H]2C[C@H]4NC(=O)c3cccc(OC(F)F)c32)cc1F` [Example 140, (7R,14R)-1-(difluoromethoxy)-11-(4-(dimethylphosphoryl)-3-fluorophenyl)-12-fluoro-6,7-dihydro-7,14-methanobenzo[f]benzo[4,5]imidazo[1,2-a][1,4]diazocin-5(14H)-one] yielded an IC50 [1] of under 100 nM.
Compound `[2H]C([2H])([2H])N1C(=O)c2cccc(OC(F)F)c2[C@H]2C[C@@H]1c1nc3ccc(-c4ccc(P(C)(C)=O)c(F)c4)nc3n12` [Example 141, (7R,14R)-1-(difluoromethoxy)-11-(4-(dimethylphosphoryl)-3-fluorophenyl)-6-(methyl-d3)-6,7-dihydro-7,14-methanobenzo[f]pyrido[3′,2′:4,5]imidazo[1,2-a][1,4]diazocin-5(14H)-one] has an IC50 [1] of under 100 nM.
In the case of `[2H]C([2H])([2H])N1C(=O)c2cccc(OC(F)F)c2[C@H]2C[C@@H]1c1nc3ccc(-c4cc(F)c(P(C)(C)=O)cc4F)nc3n12` [Example 142, (7R,14R)-1-(difluoromethoxy)-11-(4-(dimethylphosphoryl)-2,5-difluorophenyl)-6-(methyl-d3)-6,7-dihydro-7,14-methanobenzo[f]pyrido[3′,2′:4,5]imidazo[1,2-a][1,4]diazocin-5(14H)-one], the IC50 [1] is reported as under 100 nM.
